Experiments:
THP-1 cells = assay: MCP-1 Induced Chemotaxis in THP-1 Cells; assay type: cell-based; conditions: Homo sapiens; THP-1 cells, MCP-1 0.01 μg/mL, 3 hours; read-out: Inhibition of MCP-1 Induced Chemotaxis IC50
Experimental: MCP-1 Induced Chemotaxis in THP-1 Cells
MCP-1 induced chemotaxis was run in a 24-well chemotaxis chamber. MCP-1 (0.01 μg/mL) was added to the lower chamber and 100 μL of THP-1 cells (1×10^7 cell/mL) was added to the top chamber. Varying concentrations of test compound were added to the top and bottom chambers. Cells were allowed to chemotax for 3 hours at 37° C. and 5% CO2. An aliquot of the cells that had migrated to the bottom chamber was taken and counted then compared to vehicle.

CCR2 = molecular target: T1, CCR2 (Homo sapiens, UniProt P41597); conditions: for inhibition at 25 µM: read-out: Inhibition of MCP-1 Binding, percent inhibition
T1 sequence (P41597 1-360 isoform P41597-2): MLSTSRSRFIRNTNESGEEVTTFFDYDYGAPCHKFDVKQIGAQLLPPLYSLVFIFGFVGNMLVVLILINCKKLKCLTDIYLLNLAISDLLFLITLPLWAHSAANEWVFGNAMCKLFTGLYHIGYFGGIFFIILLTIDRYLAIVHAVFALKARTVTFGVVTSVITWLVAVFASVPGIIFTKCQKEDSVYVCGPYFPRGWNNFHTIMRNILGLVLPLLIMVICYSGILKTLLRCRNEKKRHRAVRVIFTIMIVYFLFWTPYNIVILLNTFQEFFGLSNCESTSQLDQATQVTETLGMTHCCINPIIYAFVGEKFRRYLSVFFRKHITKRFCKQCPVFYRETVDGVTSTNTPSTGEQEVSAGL

O=C(O)C(C1CCN(C(=O)/C=C/c2ccc(Cl)c(Cl)c2)CC1)N1CCC(c2c[nH]c3ccc(F)cc23)CC1 (centres unmarked) [Cpd 19, {1-[(2E)-3-(3,4-dichloro-phenyl)-acryloyl]-piperidin-4-yl}-[4-(5-fluoro-1H-indol-3-yl)-piperidin-1-yl]-acetic acid]
IC50 (THP-1 cells): 4 nM

O=C(O)C(C1CCN(C(=O)/C=C/c2cc(F)cc(F)c2)CC1)N1CCC(c2n[nH]c3ccccc23)CC1 (centres unmarked) [Cpd 177, {1-[(2E)-3-(3,5-difluoro-phenyl)-acryloyl]-piperidin-4-yl}-[4-(1H-indazol-3-yl)-piperidin-1-yl]-acetic acid]
IC50 (CCR2): 3000 nM

O=C(O)C(C1CCN(C(=O)Nc2ccc(F)c(F)c2F)CC1)N1CCC(c2c[nH]c3ccccc23)CC1 (centres unmarked) [Cpd 125, [4-(1H-indol-3-yl)-piperidin-1-yl]-[1-(2,3,4-trifluoro-phenylcarbamoyl)-piperidin-4-yl]-acetic acid]
IC50 (CCR2): 1700 nM

COC(=O)C(C1CCN(C(=O)/C=C/c2cc(F)c(F)c(F)c2)CC1)N1CCC(c2c[nH]c3c(OC)cccc23)CC1 (centres unmarked) [Cpd 118, [4-(7-methoxy-1H-indol-3-yl)-piperidin-1-yl]-{1-[(2E)-3-(3,4,5-trifluoro-phenyl)-acryloyl]-piperidin-4-yl}-acetic acid methyl ester]
IC50 (CCR2): 3200 nM

O=C(C1CC1c1ccc(Cl)c(Cl)c1)N1CCC(C(CO)N2CCC(c3c[nH]c4ccccc34)CC2)CC1 (centres unmarked) [Cpd 212, [2-(3,4-dichloro-phenyl)-cyclopropyl]-(4-{2-hydroxy-1-[4-(1H-indol-3-yl)-piperidin-1-yl]-ethyl}-piperidin-1-yl)-methanone]
inhibition at 25 µM (CCR2): 58%

N=C(NC(=O)c1cccc(C(F)(F)F)c1)N1CCC(C(C(=O)O)N2CCC(c3c[nH]c4ccccc34)CC2)CC1 (centres unmarked) [Cpd 73, {1-[imino-(3-trifluoromethyl-benzoylamino)-methyl]-piperidin-4-yl}-[4-(1H-indol-3-yl)-piperidin-1-yl]-acetic acid]
IC50 (CCR2): 150 nM

CCNC(=O)NCC(C1CCN(C(=O)/C=C/c2cc(F)cc(F)c2)CC1)N1CCC(c2c[nH]c3ccccc23)CC1 (centres unmarked) [Cpd 229]
IC50 (CCR2): 1700 nM

Cc1ccc(NC(=S)N2CCC(C(C(=O)O)N3CCC(c4c[nH]c5ccccc45)CC3)CC2)cc1 (centres unmarked) [Cpd 78, [4-(1H-indol-3-yl)-piperidin-1-yl]-(1-p-tolylthiocarbamoyl-piperidin-4-yl)-acetic acid]
IC50 (CCR2): 140 nM

O=C(O)C(C1CCN(C(=O)Nc2cc(Cl)c(Cl)cc2Cl)CC1)N1CCC(c2c[nH]c3ccccc23)CC1 (centres unmarked) [Cpd 126, [4-(1H-indol-3-yl)-piperidin-1-yl]-[1-(2,4,5-trichloro-phenylcarbamoyl)-piperidin-4-yl]-acetic acid]
IC50 (CCR2): 2100 nM

O=C(/C=C/c1cc(F)cc(F)c1)N1CCC(C(CO)N2CCC(c3ccc(Cl)cc3)CC2)CC1 (centres unmarked) [Cpd 249, (2E)-1-(4-{1-[4-(4-chloro-phenyl)-piperidin-1-yl]-2-hydroxy-ethyl}-piperidin-1-yl)-3-(3,5-difluoro-phenyl)-propenone]
IC50 (CCR2): 20 nM

O=C(O)C(C1CCN(C(=O)Nc2ccc(Cl)cc2F)CC1)N1CCC(c2c[nH]c3ccccc23)CC1 (centres unmarked) [Cpd 117, [1-(4-chloro-2-fluoro-phenylcarbamoyl)-piperidin-4-yl]-[4-(1H-indol-3-yl)-piperidin-1-yl]-acetic acid]
IC50 (CCR2): 1000 nM

N=C(NC(=O)c1cccc(F)c1)N1CCC(C(C(=O)O)N2CCC(c3c[nH]c4ccccc34)CC2)CC1 (centres unmarked) [Cpd 54, {1-[(3-fluoro-benzoylamino)-imino-methyl]-piperidin-4-yl}-[4-(1H-indol-3-yl)-piperidin-1-yl]-acetic acid]
IC50 (CCR2): 1400 nM

O=C(O)C(C1CCN(C(=S)Nc2ccc(Cl)c(Cl)c2)CC1)N1CCC(c2c[nH]c3ccccc23)CC1 (centres unmarked) [Cpd 64, [1-(3,4-dichloro-phenylthiocarbamoyl)-piperidin-4-yl]-[4-(1H-indol-3-yl)-piperidin-1-yl]-acetic acid]
IC50 (CCR2): 20 nM

COc1ccc(NC(=O)N2CCC(C(C(=O)O)N3CCC(c4c[nH]c5ccccc45)CC3)CC2)cc1OC (centres unmarked) [Cpd 66, [1-(3,4-dimethoxy-phenylcarbamoyl)-piperidin-4-yl]-[4-(1H-indol-3-yl)-piperidin-1-yl]-acetic acid]
IC50 (CCR2): 17700 nM

O=C(O)C(C1CCN(C(=S)Nc2ccc(F)cc2F)CC1)N1CCC(c2c[nH]c3ccccc23)CC1 (centres unmarked) [Cpd 44, [1-(2,4-difluoro-phenylthiocarbamoyl)-piperidin-4-yl]-[4-(1H-indol-3-yl)-piperidin-1-yl]-acetic acid]
IC50 (CCR2): 2700 nM

COc1ccc(/C=C/C(=O)N2CCC(C(C(=O)O)N3CCC(c4c[nH]c5ccccc45)CC3)CC2)cc1OC (centres unmarked) [Cpd 63, {1-[(2E)-3-(3,4-dimethoxy-phenyl)-acryloyl]-piperidin-4-yl}-[4-(1H-indol-3-yl)-piperidin-1-yl]-acetic acid]
IC50 (CCR2): 1610 nM

CCNC(=O)NCC(C1CCN(C(=O)/C=C/c2cccc(C)c2)CC1)N1CCC(c2c[nH]c3ccccc23)CC1 (centres unmarked) [Cpd 231]
IC50 (CCR2): 4600 nM

O=C(O)C(C1CCN(C(=O)/C=C/c2cc(F)c(F)c(F)c2)CC1)N1CCC(c2cc[nH]c2)CC1 (centres unmarked) [Cpd 150, [4-(1H-pyrrol-3-yl)-piperidin-1-yl]-{1-[(2E)-3-(3,4,5-trifluoro-phenyl)-acryloyl]-piperidin-4-yl}-acetic acid]
IC50 (CCR2): 1600 nM

COc1ccc(NC(=O)N2CCC(C(C(=O)O)N3CCC(c4c[nH]c5ccccc45)CC3)CC2)cc1 (centres unmarked) [Cpd 69, [4-(1H-indol-3-yl)-piperidin-1-yl]-[1-(4-methoxy-phenylcarbamoyl)-piperidin-4-yl]-acetic acid]
IC50 (CCR2): 14200 nM

COC(=O)c1ccc(C2CCN(C(C(=O)O)C3CCN(C(=O)/C=C/c4cc(F)cc(F)c4)CC3)CC2)cc1 (centres unmarked) [Cpd 145, 4-[1-(carboxy-{1-[(2E)-3-(3,5-difluoro-phenyl)-acryloyl]-piperidin-4-yl}-methyl)-piperidin-4-yl]-benzoic acid methyl ester]
IC50 (CCR2): 5850 nM

O=CNCC(C1CCN(C(=O)/C=C/c2ccc(Cl)c(Cl)c2)CC1)N1CCC(c2c[nH]c3ccccc23)CC1 (centres unmarked) [Cpd 222]
IC50 (CCR2): 680 nM

O=C(/C=C/c1cc(F)cc(F)c1)N1CCC(C(CO)N2CCC(c3nccs3)CC2)CC1 (centres unmarked) [Cpd 194, (2E)-3-(3,5-difluoro-phenyl)-1-{4-[2-hydroxy-1-(4-thiazol-2-yl-piperidin-1-yl)-ethyl]-piperidin-1-yl}-propenone]
IC50 (CCR2): 2300 nM

COC(=O)NCC(C1CCN(C(=O)/C=C/c2cc(F)cc(F)c2)CC1)N1CCC(c2c[nH]c3ccccc23)CC1 (centres unmarked) [Cpd 239]
IC50 (CCR2): 3000 nM

CCNC(=O)NCC(C1CCN(C(=O)/C=C/c2cccc(C(F)(F)F)c2)CC1)N1CCC(c2c[nH]c3ccccc23)CC1 (centres unmarked) [Cpd 232]
IC50 (CCR2): 4000 nM

COC(=O)NCC(C1CCN(C(=O)/C=C/c2ccc(Cl)c(Cl)c2)CC1)N1CCC(c2c[nH]c3ccccc23)CC1 (centres unmarked) [Cpd 240]
IC50 (CCR2): 4600 nM

COC(=O)NCC(C1CCN(C(=O)/C=C/c2cc(F)c(F)c(F)c2)CC1)N1CCC(c2c[nH]c3ccccc23)CC1 (centres unmarked) [Cpd 238, (2-[4-(1H-indol-3-yl)-piperidin-1-yl]-2-{1-[(2E)-3-(3,4,5-trifluoro-phenyl)-acryloyl]-piperidin-4-yl}-ethyl)-carbamic acid methyl ester]
IC50 (CCR2): 2400 nM

CS(=O)(=O)Nc1ccc(C2CCN(C(CO)C3CCN(C(=O)/C=C/c4ccc(Cl)c(Cl)c4)CC3)CC2)cc1 (centres unmarked) [Cpd 210, N-{4-[1-(1-{1-[(2E)-3-(3,4-dichloro-phenyl)-acryloyl]-piperidin-4-yl}-2-hydroxy-ethyl)-piperidin-4-yl]-phenyl}-methanesulfonamide]
IC50 (CCR2): 5000 nM

COCC(C1CCN(C(=O)/C=C/c2cc(F)cc(F)c2)CC1)N1CCC(c2ccc(OC)cc2)CC1 (centres unmarked) [Cpd 255, (2E)-3-(3,5-difluoro-phenyl)-1-(4-{2-methoxy-1-[4-(4-methoxy-phenyl)-piperidin-1-yl]-ethyl}-piperidin-1-yl)-propenone]
IC50 (CCR2): 2400 nM

O=C(/C=C/c1cc(F)c(F)c(F)c1)N1CCC(C(CO)N2CCC(c3nccs3)CC2)CC1 (centres unmarked) [Cpd 195]
IC50 (CCR2): 3300 nM

Cc1cccc(/C=C/C(=O)N2CCC(C(CNC=O)N3CCC(c4c[nH]c5ccccc45)CC3)CC2)c1 (centres unmarked) [Cpd 223]
IC50 (CCR2): 4100 nM

CS(=O)(=O)Nc1ccc(C2CCN(C(CO)C3CCN(C(=O)/C=C/c4cc(F)c(F)c(F)c4)CC3)CC2)cc1 (centres unmarked) [Cpd 209, N-{4-[1-(2-hydroxy-1-{1-[(2E)-3-(3,4,5-trifluoro-phenyl)-acryloyl]-piperidin-4-yl}-ethyl)-piperidin-4-yl]-phenyl}-methanesulfonamide]
inhibition at 25 µM (CCR2): 52%

COC(=O)c1ccc(NC(=O)N2CCC(C(C(=O)O)N3CCC(c4c[nH]c5ccccc45)CC3)CC2)cc1 (centres unmarked) [Cpd 68, 4-[(4-{carboxy-[4-(1H-indol-3-yl)-piperidin-1-yl]-methyl}-piperidine-1-carbonyl)-amino]-benzoic acid methyl ester]
IC50 (CCR2): 3550 nM

CCNC(=O)NCC(C1CCN(C(=O)/C=C/c2ccc(Cl)c(Cl)c2)CC1)N1CCC(c2c[nH]c3ccccc23)CC1 (centres unmarked) [Cpd 230]
IC50 (CCR2): 2100 nM

O=C(O)C(C1CCN(C(=S)Nc2ccccc2)CC1)N1CCC(c2c[nH]c3ccccc23)CC1 (centres unmarked) [Cpd 43, [4-(1H-indol-3-yl)-piperidin-1-yl]-(1-phenylthiocarbamoyl-piperidin-4-yl)-acetic acid]
IC50 (CCR2): 1100 nM

O=C(/C=C/c1cc(F)cc(F)c1)N1CCC(C(CO)N2CCC(c3ccccn3)CC2)CC1 (centres unmarked) [Cpd 200]
IC50 (CCR2): 2000 nM
